In ChEMBL document CHEMBL5233209, “A concise review of recent advances in anti-heart failure targets and its small molecules inhibitors in recent years” (Eur J Med Chem, 2020):

Key:
[1] = Half life in human; format: ADME
[2] = Tmax in human plasma; format: ADME, cell-free
[3] = target: cGMP-specific 3',5'-cyclic phosphodiesterase (Homo sapiens, UniProt O76074); assay: Inhibition of PDE-5A (unknown origin)
Neprilysin = Neprilysin (Homo sapiens, UniProt P08473); assay: Inhibition of neutral endopeptidase (unknown origin)
Chain of Neprilysin (P08473 whole entry): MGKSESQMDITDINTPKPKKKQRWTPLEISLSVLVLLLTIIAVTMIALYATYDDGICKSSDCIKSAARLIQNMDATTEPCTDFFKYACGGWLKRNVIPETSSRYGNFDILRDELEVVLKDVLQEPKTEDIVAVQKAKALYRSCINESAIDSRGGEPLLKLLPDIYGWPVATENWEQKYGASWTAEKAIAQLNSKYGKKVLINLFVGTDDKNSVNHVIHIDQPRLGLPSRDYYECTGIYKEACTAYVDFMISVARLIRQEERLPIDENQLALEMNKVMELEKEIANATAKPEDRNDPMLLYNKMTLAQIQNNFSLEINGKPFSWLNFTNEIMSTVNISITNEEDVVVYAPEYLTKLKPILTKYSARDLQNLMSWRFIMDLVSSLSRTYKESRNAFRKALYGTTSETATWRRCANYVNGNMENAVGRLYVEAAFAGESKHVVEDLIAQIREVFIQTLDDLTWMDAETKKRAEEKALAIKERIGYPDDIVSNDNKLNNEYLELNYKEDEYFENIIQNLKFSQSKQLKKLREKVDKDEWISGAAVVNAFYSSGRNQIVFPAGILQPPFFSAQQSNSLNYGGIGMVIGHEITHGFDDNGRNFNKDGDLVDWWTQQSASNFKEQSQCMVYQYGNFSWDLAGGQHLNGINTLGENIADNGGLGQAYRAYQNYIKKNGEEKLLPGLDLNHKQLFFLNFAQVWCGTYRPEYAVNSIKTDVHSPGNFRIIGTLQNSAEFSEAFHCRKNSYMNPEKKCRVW

Row | Structure (SMILES) | half-life [1] [h] | Tmax [2] [h] | IC50 [3] [µmol] | other results
1 | CCCCC(=O)N(Cc1ccc(-c2ccccc2-c2nnn[n-]2)cc1)[C@H](C(=O)[O-])C(C)C.CCOC(=O)[C@H](C)C[C@@H](Cc1ccc(-c2ccccc2)cc1)NC(=O)CCC(=O)[O-].O.O.[Na+].[Na+].[Na+] | – | – | – | IC50 (Neprilysin): 5 nM
2 | C[C@H](C[C@@H](Cc1ccc(-c2ccccc2)cc1)NC(=O)CCC(=O)O)C(=O)O [LBQ-657] | 21 | – | – | –
3 | CCOC(=O)[C@H](C)C[C@@H](Cc1ccc(-c2ccccc2)cc1)NC(=O)CCC(=O)O [SACUBITRIL] | – | 0.5 | – | –

More lines, main results first:

Row | half-life [1] [h] | Tmax [2] [h] | IC50 [3] [µmol] | Structure (SMILES) | other results
4 | 12 | 1.6 | – | CCCCC(=O)N(Cc1ccc(-c2ccccc2-c2nnn[nH]2)cc1)[C@H](C(=O)O)C(C)C | –
5 | – | – | 2.67 | CC(C)=CCc1c(O)c2c(c3c1OC(C)(C)C=C3)CC=C(c1ccc3c(c1)OCCO3)C2=O | –
6 | – | – | 0.5 | CC(C)=CCC1=C(O)c2c(occ(-c3ccc(O[N+](=O)[O-])cc3)c2=O)C2C=CC(C)(C)OC12 (configuration not stated) | –
